Results: ChEMBL document CHEMBL6074644, “Design, synthesis, and activity evaluation of water-soluble propofol derivatives as anesthetic drugs” (Bioorg Med Chem Lett, 2024)

Experiments:
[1] = tested on: Mus musculus; experiment: Anesthetic activity in iv dosed Kunming mouse by up and down method; type: functional
[2] = Therapeutic index, ratio of LD50 for toxicity in iv dosed Kunming mouse assessed as lethal dose to ED50 for anesthetic activity in iv dosed Kunming mouse; type: organism-based; conditions: in vivo, read-out: Ratio LD50/ED50
[3] = tested on: Mus musculus; experiment: Anesthetic activity in Kunming mouse assessed as disappearance of flip reflex by measuring onset time administered as single bolus dose; type: functional
[4] = tested on: Mus musculus; experiment: Anesthetic activity in Kunming mouse assessed as reappearance of flip reflex by measuring duration time administered as single bolus dose; type: functional
[5] = Toxicity in iv dosed Kunming mouse assessed as lethal dose; type: organism-based; conditions: in vivo

Row | Compound | ED50 [1] [mg/kg] | selectivity ratio [2] | Time [3] [s] | Time [4] [s] | LD50 [5] [µmol/kg]
1 | CC1CCCN(CC(=O)OCCCC(=O)Oc2c(C(C)C)cccc2C(C)C)C1.Cl (stereo not given) | 2.9 | 5.1 | 16 | 547 | 14700
2 | CC(C)c1cccc(C(C)C)c1OC(=O)CCCOC(=O)CCCN1CCCC1.Cl | 8.9 | 5.2 | 1 | 534 | 46400
3 | CC1CCN(CC(=O)Oc2c(C(C)C)cccc2C(C)C)CC1.Cl | 11.1 | 1.6 | 11 | 137 | 18000
4 | CC1CCCN(CC(=O)Oc2c(C(C)C)cccc2C(C)C)C1.Cl (stereo not given) | 1.7 | 2.3 | 27 | 172 | 3900
5 | CC1CCN(CCCC(=O)OCCCC(=O)Oc2c(C(C)C)cccc2C(C)C)CC1.Cl | 2.5 | 5.2 | 3 | 337 | 13100
6 | CC(C)c1cccc(C(C)C)c1OC(=O)CCCOC(=O)CN1CCCCC1C.Cl (stereo not given) | 13 | 4.8 | 9 | 317 | 62800
7 | CC(C)c1cccc(C(C)C)c1OC(=O)CCCOC(=O)CN1CCCC1.Cl | 11.3 | 5 | 18 | 216 | 56500
8 | CC(C)c1cccc(C(C)C)c1OC(=O)CCN1CCCC1.Cl | 15.1 | 2.6 | 5 | 180 | 3900
9 | CC(C)c1cccc(C(C)C)c1OC(=O)CCCOC(=O)CCCN1CCCCC1.Cl | 2.4 | 5.1 | 8 | 413 | 12300
10 | CCN(CC)CCCC(=O)OCCCC(=O)Oc1c(C(C)C)cccc1C(C)C.Cl | 7.1 | 5.1 | 24 | 486 | 36300
11 | CC(C)c1cccc(C(C)C)c1OC(=O)CCCOC(=O)CN1CCOCC1.Cl | 8.2 | 4.8 | 19 | 434 | 39600
12 | CC(C)c1cccc(C(C)C)c1OC(=O)CCCOC(=O)CCCN1CCCCC1C.Cl (stereo not given) | 6.2 | 5.2 | 9 | 412 | 32100
13 | CCCN(CCC)CCCC(=O)OCCCC(=O)Oc1c(C(C)C)cccc1C(C)C.Cl | 9.2 | 5.2 | 21 | 536 | 48100
14 | CCCN(CCC)CCC(=O)Oc1c(C(C)C)cccc1C(C)C.Cl | 15.2 | 3.8 | 5 | 168 | 57600
15 | CC(C)c1cccc(C(C)C)c1OC(=O)CCN1CCCCC1C.Cl (stereo not given) | 14 | 4.1 | 2 | 154 | 57700
16 | CC1CCCN(CCC(=O)Oc2c(C(C)C)cccc2C(C)C)C1.Cl (stereo not given) | 7.1 | 4.1 | 18 | 144 | 28700
17 | CC(C)c1cccc(C(C)C)c1O [PROPOFOL] | 0.6 | 2.7 | 15 | 57 | 1600
